Experimental findings from patent US12643871B2, “Aryl formamide compound containing chiral sulfur oxide or salt thereof, preparation method, herbicidal composition and use thereof” (Qingdao Kingagroot Chemical Compound Co., Ltd., priority 2019, dated 2026) are described below.

Structures are written as SMILES.

The test system of one series is Amaranthus retroflexus. The series can be described thus: Weeding effect in post-emergence stage. Type of series: in vivo. The note with it: 250 g/ha; 2 leaf stage; 15 days after application; fresh weight control rate. Summed up:
(§1)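 Reported levels reflect fresh weight growth control rate banded 0 (<5%) through 5 (>85%), averaged over three repetitions. Treatment: foliar spray of 2-leaf-stage greenhouse plants at 15 to 500 g/ha, with 1.5 liter/ha methyl oleate synergist; assessment 15 days after application.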

Another series concerns Digitaria sanguinalis. Kind of series: Weeding effect in post-emergence stage. It is filed as in vivo. The note with it: 250 g/ha; 2 leaf stage; 15 days after application; fresh weight control rate. A digest of the protocol: as §1
A further series deals with Setaria viridis. The series can be described thus: Weeding effect in post-emergence stage. Type of series: in vivo. The note with it: 250 g/ha; 2 leaf stage; 15 days after application; fresh weight control rate. A digest of the protocol:
as §1

In the next series the test system is Abutilon theophrasti. Kind of series: Weeding effect in post-emergence stage. It is filed as in vivo. Conditions: 250 g/ha; 2 leaf stage; 15 days after application; fresh weight control rate. Summed up:
as §1

Series [1] deals with Echinochloa crusgali. The series can be described thus: Weeding effect in post-emergence stage. Type of series: in vivo. Conditions: 250 g/ha; 2 leaf stage; 15 days after application; fresh weight control rate. A digest of the protocol: as §1
Another series relates to Monochoria vaginalis. The series can be described thus: Weed control effect evaluation in rice field. Conditions: rice field pot, 14 days after treatment, ALS-inhibitor resistant weed from Heilongjiang. It is filed as in vivo. The text has this:
(§2) The activity level criteria for harmful plant damage (i.e., growth control rate) are as follows: • Level 5: growth control rate is above 85%; • Level 4: growth control rate is greater than or equal to 60% and less than 85%; • Level 3: growth control rate is greater than or equal to 40% and less than 60%; • Level 2: growth control rate is greater than or equal to 20% and less than 40%; • Level 1: growth control rate is greater than or equal to 5% and less than 20%; • Level 0: growth control rate is less than 5%.
(§3) Rice field soil was loaded into a 1/1,000,000 ha pot. The seeds of Echinochloa crusgali, Scirpus juncoides, Bidens tripartita, Sagittaria trifolia, Monochoria vaginalis and Leptochloa chinensis were sowed and gently covered with soil, then left to stand still in greenhouse in the state of 0.5-1 cm of water storage. The tuber of Sagittaria trifolia was planted in the next day or 2 days later. It was kept at 3-4 cm of water storage thereafter. The weeds were treated by dripping the WP or SC water diluents prepared according to the common preparation method of the compounds of the present invention with pipette homogeneously to achieve specified effective amount when Echinochloa crusgali, Scirpus juncoides, Bidens tripartita, Monochoria vaginalis and Leptochloa chinensis reached 0.5 leaf stage and Sagittaria trifolia reached the time point of primary leaf stage.
(§4) The fertility condition of Echinochloa crusgali, Scirpus juncoides, Bidens tripartita, Leptochloa chinensis, Sagittaria trifolia and Monochoria vaginalis 14 days after the treatment of the compound of the invention and the fertility condition of rice 21 days after the treatment of the compound of the invention respectively with the naked eye. Evaluate the weed control effect with 0-5 activity standard level. Many compounds show excellent activity and selectivity.

For another series, the system named is Leptochloa chinensis. The series can be described thus: Weed control effect evaluation in rice field. Type of series: in vivo. The note with it: rice field pot, 14 days after treatment.
Description: as §2, §3, §4

The subject of a further series is Sagittaria trifolia. The series can be described thus: Weed control effect evaluation in rice field. Type of series: in vivo. The note with it: rice field pot, 14 days after treatment, ALS-inhibitor resistant weed from Heilongjiang.
Description: as §2, §3, §4

The subject of series [2] is Echinochloa crusgali. The series can be described thus: Weed control effect evaluation in rice field. It is filed as in vivo. The note with it: rice field pot, 14 days after treatment, ALS-inhibitor resistant weed from Heilongjiang.
Description: as §2, §3, §4

Another series has as its system Rice. Kind of series: Transplanted rice safety evaluation. It is filed as in vivo, rice (japonica rice/Indica rice). The note with it: 60 g/ha; transplanted 3 leaf stage rice, 21 days after treatment.
Description: as §2
In addition, the rice field soil that loaded into the 1/1,000,000 ha pot was leveled to keep water storage at 3-4 cm depth. The 3 leaf stage rice (japonica rice/Indica rice) was transplanted at 3 cm of transplanting depth the next day. The compound of the present invention was treated by the same way after 5 days of transplantation.
as §4

For `Cc1nnc(NC(=O)c2ccc(C(F)(F)F)c([S@+]([O-])CC(C)C)c2F)o1` [Compound 6], the “weeding effect in post-emergence stage, activity level (growth control rate), Amaranthus retroflexus” value with Amaranthus retroflexus was 5 (Level 5: growth control rate is above 85%). Further, the “weeding effect in post-emergence stage, activity level (growth control rate), Digitaria sanguinalis” value in the series on Digitaria sanguinalis was 5 (Level 5: growth control rate is above 85%). Further, the “weeding effect in post-emergence stage, activity level (growth control rate), Setaria viridis” value with Setaria viridis is recorded as 5 (Level 5: growth control rate is above 85%). In the series with Abutilon theophrasti, the “weeding effect in post-emergence stage, activity level (growth control rate), Abutilon theophrasti” value was 5 (Level 5: growth control rate is above 85%). The “weeding effect in post-emergence stage, activity level (growth control rate), Echinochloa crusgali” value in the series with Echinochloa crusgali [1] is given as 5 (Level 5: growth control rate is above 85%). For the same compound, the “Herbicidal effects of compounds, Monochoria vaginalis, 0-5 activity standard level” value with Monochoria vaginalis (60 g/ha) is on record as 5 (Level 5: growth control rate is above 85%). Also, the “Herbicidal effects of compounds, Leptochloa chinensis, 0-5 activity standard level” value with Leptochloa chinensis (60 g/ha) is recorded as 5 (Level 5: growth control rate is above 85%). Moreover, the “Herbicidal effects of compounds, Sagittaria trifolia, 0-5 activity standard level” value with Sagittaria trifolia (60 g/ha) is listed as 5 (Level 5: growth control rate is above 85%). Moreover, the “Herbicidal effects of compounds, Echinochloa crusgali, 0-5 activity standard level” value in the series with Echinochloa crusgali [2] (60 g/ha) is given as 5 (Level 5: growth control rate is above 85%). The “Herbicidal effects of compounds, Rice, 0-5 activity standard level” value with Rice is listed as 0 (Level 0: growth control rate is less than 5%).
For `Cc1nnc(NC(=O)c2ccc(C(F)(F)F)c([S@+]([O-])CCCCl)c2F)o1` [Compound 37], the “weeding effect in post-emergence stage, activity level (growth control rate), Amaranthus retroflexus” value in the series with Amaranthus retroflexus was 5 (Level 5: growth control rate is above 85%). Further, the “weeding effect in post-emergence stage, activity level (growth control rate), Digitaria sanguinalis” value in the series on Digitaria sanguinalis is listed as 5 (Level 5: growth control rate is above 85%). Also, the “weeding effect in post-emergence stage, activity level (growth control rate), Setaria viridis” value in the series with Setaria viridis is 5 (Level 5: growth control rate is above 85%). The “weeding effect in post-emergence stage, activity level (growth control rate), Abutilon theophrasti” value in the series on Abutilon theophrasti is on record as 5 (Level 5: growth control rate is above 85%). In the series with Echinochloa crusgali [1], the “weeding effect in post-emergence stage, activity level (growth control rate), Echinochloa crusgali” value is reported as 5 (Level 5: growth control rate is above 85%). Further, in the series with Monochoria vaginalis (60 g/ha), the “Herbicidal effects of compounds, Monochoria vaginalis, 0-5 activity standard level” value is recorded as 5 (Level 5: growth control rate is above 85%). Also, the “Herbicidal effects of compounds, Leptochloa chinensis, 0-5 activity standard level” value with Leptochloa chinensis (60 g/ha) is 5 (Level 5: growth control rate is above 85%). The “Herbicidal effects of compounds, Sagittaria trifolia, 0-5 activity standard level” value with Sagittaria trifolia (60 g/ha) is given as 5 (Level 5: growth control rate is above 85%). Besides, the “Herbicidal effects of compounds, Echinochloa crusgali, 0-5 activity standard level” value with Echinochloa crusgali [2] (60 g/ha) is 5 (Level 5: growth control rate is above 85%). Moreover, the “Herbicidal effects of compounds, Rice, 0-5 activity standard level” value with Rice is listed as 0 (Level 0: growth control rate is less than 5%).
Regarding `COc1cnc(OC)n2nc(NS(=O)(=O)c3c(OCC(F)F)cccc3C(F)(F)F)nc12` [Penoxsulam, reference compound], in the series on Monochoria vaginalis (30 g/ha), the “Herbicidal effects of compounds, Monochoria vaginalis, 0-5 activity standard level” value is 1 (Level 1: growth control rate is greater than or equal to 5% and less than 20%). Also, in the series with Leptochloa chinensis (30 g/ha), the “Herbicidal effects of compounds, Leptochloa chinensis, 0-5 activity standard level” value is 1 (Level 1: growth control rate is greater than or equal to 5% and less than 20%). In the series on Sagittaria trifolia (30 g/ha), the “Herbicidal effects of compounds, Sagittaria trifolia, 0-5 activity standard level” value was 0 (Level 0: growth control rate is less than 5%). Besides, the “Herbicidal effects of compounds, Echinochloa crusgali, 0-5 activity standard level” value in the series on Echinochloa crusgali [2] (30 g/ha) is 0 (Level 0: growth control rate is less than 5%).
